In experiment [1] the target is purified human TDO protein (Homo sapiens (Human), UniProt P48775). In words: Enzymatic TDO assay. In kind it is biochemical. Here is the method: Differently from the IDO activity assay, no methylene blue is added to the assay. The inhibitors were initially diluted in DMSO at 100 mM and were diluted in potassium phosphate 50 mM, added to the reaction mixture at final concentrations raging from 300 μM to 5 nM and preincubated with the enzyme for 5 min at 25° C. The reaction was started by addition of L-tryptophan to 200 μM and incubated 15 min at 37° C. The reaction was stopped by addition of 0.5 vol of 30% trichloroacetic acid and incubated 30 min at 60° C. to hydrolyze N-formylkynurenine to kynurenine. The reaction was centrifuged at 3400 g for 5 min to remove precipitated protein and the supernatant was reacted with 2% (w/v) of p-dimethylaminobenzaldehyde in acetic acid. The reaction was incubated 10 min at 25° C. and read at 480 nm in a spectrophotometer. Control samples with no TDO inhibitor, or with no TDO enzyme were used as controls to set the parameters for the non-linear regressions necessary for determination of the IC50 for each compound. Nonlinear regressions and determination of the IC50 values were performed using the GraphPad Prism 4 software.

Experiment [2] has as its target purified human IDO protein (Homo sapiens (Human), UniProt P14902). Kind of experiment: Enzymatic IDO assay. In kind it is biochemical. Here is the method:
Expression vectors for human indoleamine-2,3-dioxygenase (IDO) protein were prepared by amplification of a 1219 bp fragment of the sequence present in vector phIDO6His cDNA with primers 5′-ggagcatgcta[…]-3′ (SEQ ID NO: 1) and 5′gagagatct[…]-3′ (SEQ ID NO: 2) and cloning the SphI-BglII 1213 bp fragment into pQE70 (Qiagen), to yield vector pQE70-hIDO. This construct adds 2 extra amino acids and a 6-Histidine tag to the C-terminus of the natural human IDO protein while preserving intact the natural start codon and N-terminus amino acid sequence.
Plasmid pQE70-hIDO was transformed into M15(pREP4) cells (Qiagen) and clones were selected in LB-agar plates supplemented with carbenicillin 50 μg/mL and kanamycin 30 μg/mL. Protein expression was carried out by growing an overnight culture of the M15pREP4/pQE70-hIDO clone in 100 mL LB supplemented with 100 μg/mL carbenicillin, 50 μg/mL kanamycin and 50 μg/mL of L-tryptophan (LBCKT medium). 40 mL of this culture were inoculated into 750 mL of LBCKT for 4 hours at 37° C. This culture was diluted 1:10 into LBCKT medium and cultured for another 2 hours at 37° C. until OD600 was higher than 0.8. At this point the cultures were inoculated with Hemin to 7 μM and L-Tryptophan to 75 μg/mL and incubated at 37° C. for 2 h. Induction of protein expression was carried out by supplementing the cultures with IPTG to 1 mM, PMSF to 200 μM, EDTA to 1 mM and L-tryptophan to 50 μg/mL. Incubation was continued for additional 16 h at 25° C. Cells were collected by centrifugation, and the cell pellets were washed with PBS buffer supplemented with 200 μM PMSF and 1 mM EDTA and stored at −80° C. until protein purification.
The equivalent of 16 L of culture were processed in one batch of purification. Cell pellets were thawed, resuspended in 50 mM potassium phosphate buffer pH 7.0, 200 μM PMSF, 1 mM EDTA, 1 mg/mL lysozyme to 10 mL per liter of bacterial culture and incubated 30 minutes on ice. Cells were then lysed by sonication. Cell lysates were centrifuged 20 min at 20000 g and the supernatant was filtered through 0.45 μm filters. The filtered supernatant was loaded onto a 60 mL phosphocellulose column equilibrated with 50 mM potassium phosphate buffer pH 6.5 (KPB) at 1-3 mL/min. The column was washed with 3 volumes of 50 mM KPB, 3 volumes of 100 mM KPB and the protein was eluted with 15 volumes of a linear gradient of 100-500 mM KPB. Fractions were collected and IDO activity assay was performed by measuring kynurenine production. This was carried out by mixing 50 μL of each fraction with 100 μL of reaction mix to yield a final concentration of 50 mM KPB buffer, 20 mM ascorbic acid, 200 μg/mL catalase, 20 μM methylene blue and 400 μM L-tryptophan. […] Collected fractions were assayed by IDO enzymatic assay described above and the positive fractions were pooled and concentrated by ultrafiltration and dialyzed against a buffer containing 250 mM KPB, 50% glycerol.
The inhibitors were initially diluted in DMSO at 100 mM and were diluted in potassium phosphate 50 mM, added to the reaction mixture at final concentrations raging from 1 mM to 5 nM and preincubated with the enzyme for 5 min at 25° C. The reaction was started by addition of L-tryptophan to 200 μM and incubated 15 min at 37° C. The reaction was stopped by addition of 0.5 vol of 30% trichloroacetic acid and incubated 30 min at 60° C. to hydrolyze N-formylkynurenine to kynurenine. The reaction was centrifuged at 3400 g for 5 min to remove precipitated protein and the supernatant was reacted with 2% (w/v) of p-dimethylaminobenzaldehyde in acetic acid. The reaction was incubated 10 min at 25° C. and read at 480 nm in a spectrophotometer.

Bounds are passed on as bounds.

purified human TDO protein, sequence (P48775 whole entry): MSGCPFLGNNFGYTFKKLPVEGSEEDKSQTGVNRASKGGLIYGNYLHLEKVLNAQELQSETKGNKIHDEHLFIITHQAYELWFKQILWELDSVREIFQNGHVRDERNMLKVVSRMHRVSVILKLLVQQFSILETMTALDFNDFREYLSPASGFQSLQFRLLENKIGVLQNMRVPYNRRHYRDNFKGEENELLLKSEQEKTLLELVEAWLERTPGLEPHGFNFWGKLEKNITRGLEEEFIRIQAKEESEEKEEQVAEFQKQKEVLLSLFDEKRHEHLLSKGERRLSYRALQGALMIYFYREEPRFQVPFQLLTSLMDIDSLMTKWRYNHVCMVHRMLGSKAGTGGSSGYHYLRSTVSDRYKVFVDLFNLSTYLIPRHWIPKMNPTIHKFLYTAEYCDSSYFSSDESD
purified human IDO protein, sequence (P14902 whole entry P110S/E119G, the tested form may be a part): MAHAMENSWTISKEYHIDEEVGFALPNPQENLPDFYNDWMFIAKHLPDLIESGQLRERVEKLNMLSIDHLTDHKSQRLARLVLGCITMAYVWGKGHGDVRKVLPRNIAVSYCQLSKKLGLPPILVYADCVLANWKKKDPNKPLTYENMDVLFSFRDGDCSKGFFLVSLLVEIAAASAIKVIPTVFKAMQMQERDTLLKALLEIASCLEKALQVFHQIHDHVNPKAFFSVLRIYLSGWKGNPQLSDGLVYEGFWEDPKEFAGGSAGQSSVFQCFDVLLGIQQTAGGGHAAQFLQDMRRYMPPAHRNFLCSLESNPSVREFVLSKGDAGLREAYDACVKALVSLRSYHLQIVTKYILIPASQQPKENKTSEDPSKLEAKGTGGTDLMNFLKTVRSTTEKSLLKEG

The term IC50 denotes the concentration that inhibits the measured activity by half. High values mean weaker potency in that assay, low ones greater potency in that assay. As for `O=C(CC1c2ccccc2-n2cncc21)C1CCCCC1` (centres unmarked) [Compound 27, 1-cyclohexyl-2-(9H-imidazo[1,5-a]indol-9-yl)ethan-1-one], the IC50 in experiment [1] is less than 1 µM; in experiment [2], 1 to 10 µM.

As to `O=C(CC1c2ccccc2-c2nncn21)C1CCCCC1` (centres unmarked) [Compound 43, 2-(5H-[1,2,4]triazolo[3,4-a]isoindol-5-yl)-1-cyclohexylethan-1-one], the IC50 in experiment [1] and in experiment [2] was more than 100 µM each time. `O=C(CC1c2ccccc2-c2cnnn21)C1CCCCC1` (centres unmarked) [Compound 53, 2-(8H-[1,2,3]triazolo[5,1-a]isoindol-8-yl)-1-cyclohexylethan-1-one]: the IC50 in experiment [1] and in experiment [2] was 10 to 100 µM each time.

Regarding `O=C(CC1c2ccccc2-c2cnnn21)C1CCC(F)(F)CC1` (centres unmarked) [Compound 54, 2-(8H-[1,2,3]triazolo[5,1-a]isoindol-8-yl)-1-(4,4-difluorocyclohexyl)ethan-1-one], the IC50 in experiment [1] and in experiment [2] was more than 100 µM throughout.

As to `OC(CC1c2ccccc2-c2cnnn21)C1CCCCC1` (centres unmarked) [Compound 66, 2-(8H-[1,2,3]triazolo[5,1-a]isoindol-8-yl)-1-cyclohexylethan-1-ol], the IC50 in experiment [1] and in experiment [2] was 10 to 100 µM each time. On to `OC(CC1c2ccccc2-c2cnnn21)C1CCC(F)(F)CC1` (centres unmarked) [Compound 68, 2-(8H-[1,2,3]triazolo[5,1-a]isoindol-8-yl)-1-(4,4-difluorocyclohexyl)ethan-1-ol], for which the results for the IC50 in experiment [1] and in experiment [2] were 1 to 10 µM and 10 to 100 µM, respectively. In the same order, the values of `OC(CC1c2ccccc2-c2nncn21)C1CCCCC1` (centres unmarked) [Compound 69, 2-(5H-[1,2,4]triazolo[3,4-a]isoindol-5-yl)-1-cyclohexylethan-1-ol] are more than 100 µM and more than 100 µM. Compound `OC(CC1c2ccccc2-n2cncc21)C1CCCCC1` (centres unmarked) [Compound 70, 1-cyclohexyl-2-(9H-imidazo[1,5-a]indol-9-yl)ethan-1-ol] came in with an IC50 in experiment [1] of less than 1 µM. Consider `c1ccc2c(c1)Cc1cn[nH]c1-2` [Compound 101], for which the IC50 in experiment [1] is 1 to 10 µM; in experiment [2], more than 100 µM.

Source of the values: patent US9617272B2, “Tricyclic compounds as inhibitors of immunosuppression mediated by tryptophan metabolization” (NewLink Genetics Corporation, priority 2013, dated 2017).
